According to patent US10894777B2, “TG2 inhibitor piperazine compounds and uses thereof” (UNIVERSITY OF OTTAWA, priority 2016, dated 2021):

What was measured:
SCC-13 cells = test: Matrigel invasion assay, SCC-13 cells; assay type: cell-based, human
Protocol: Invasion assay. Matrigel was diluted in 0.01 M Tris-HCl/0.7% NaCl, filter sterilized and 0.1 ml was used to coat individual BD BioCoat inserts (Millicell-PCF, 0.4 μm, 12 mm, PIHP01250). Cells (25,000) were plated in 100 μl in growth medium, supplemented with 1% FCS, in the upper chamber. The lower chamber contained growth medium supplemented with 10% FCS. After migration, the membranes were harvested and excess cells were removed from the upper membrane surface. The membrane was fixed in 4% paraformaldehyde, stained with 1 μg/m DAPI, and the underside of the membrane was photographed with an inverted fluorescent microscope and the number of cells counted.
Invasion assay. Matrigel (BD Biolabs) was diluted into 2 mL of 0.01 M Tris-HC/0.7% NaCl to a final concentration of 300 μg/mL, filter sterilized and 0.1 mL was added per BD BioCoat cell insert. After 2 hours, near-confluent SCC13-TG2-shRNA2 and SCC13-Control-shRNA cells were harvested and 25,000 cells were plated in 100 μL of growth media containing 1% FCS atop the Matrigel layer. Growth medium containing 10% FCS was added to the bottom chamber followed by an overnight incubation at 37° C. The following day a cotton swab was used to remove cells from the upper side of the membrane, the membrane was rinsed with phosphate-buffered saline, fixed with 4% paraformaldehyde for 10 min, washed again, and stained with 1 μg/mL DAPI for 10 min. The underside of the membrane was viewed with an inverted fluorescent microscope and nuclei were counted.
Invasion assay. Matrigel (BD Biolabs) was diluted into 2 ml of 0.01 M Tris-HC/0.7% NaCl to a final concentration of 300 μg/ml, filter sterilized, and 0.1 ml was added per BD BioCoat cell insert (8 microns pore size, surface area 0.3 cm2). After 2 h, near-confluent SCC-13 cells were harvested and 25,000 cells were plated in 100 μl of growth media containing 1% FCS atop the Matrigel layer. Growth medium containing 10% FCS was added to the bottom chamber followed by an overnight incubation at 37° C. The following day a cotton swab was used to remove cells from the upper side of the membrane, the membrane was rinsed with PBS, fixed with 4% paraformaldehyde, washed again, and stained with 1 μg/ml DAPI for 10 min. The underside of the membrane was viewed with an inverted fluorescent microscope, and nuclei were counted (Adhikary, G. et al., PLoS One 8:e84324, 2013).

endogenous TG2 = target: T1, endogenous TG2 (Homo sapiens, UniProt P21980); test: TG2 GTP-agarose pull-down assay, HaCaT cells; assay type: cell-based; settings: 48 h
T1 construct: endogenous in cells; host or cells: HaCaT
T1 sequence (P21980 1-687): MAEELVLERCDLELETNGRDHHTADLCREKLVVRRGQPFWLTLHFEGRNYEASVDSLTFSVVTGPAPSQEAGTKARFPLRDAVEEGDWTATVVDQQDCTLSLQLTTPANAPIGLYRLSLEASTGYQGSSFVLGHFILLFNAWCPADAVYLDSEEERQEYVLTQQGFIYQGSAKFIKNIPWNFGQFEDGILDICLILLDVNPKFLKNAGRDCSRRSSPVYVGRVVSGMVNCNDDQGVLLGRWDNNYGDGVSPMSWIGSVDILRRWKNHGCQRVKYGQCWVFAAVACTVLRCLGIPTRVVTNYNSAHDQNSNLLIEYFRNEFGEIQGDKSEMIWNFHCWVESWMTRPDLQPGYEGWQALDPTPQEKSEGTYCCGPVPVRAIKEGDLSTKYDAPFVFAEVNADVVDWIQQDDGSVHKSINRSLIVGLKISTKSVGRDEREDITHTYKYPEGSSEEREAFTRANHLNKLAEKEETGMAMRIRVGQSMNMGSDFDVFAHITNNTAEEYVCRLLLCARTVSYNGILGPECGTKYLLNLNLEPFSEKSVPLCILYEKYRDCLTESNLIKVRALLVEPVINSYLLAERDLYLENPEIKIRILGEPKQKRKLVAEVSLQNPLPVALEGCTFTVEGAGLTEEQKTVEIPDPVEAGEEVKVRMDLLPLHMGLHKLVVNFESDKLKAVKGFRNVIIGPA
Protocol: HaCaT cells were electroporated with mCer-TG2 or mCer-TG2-YAP and then treated with 0 or 5 μM of the indicated inhibitor and fluorescent lifetime was monitored. […] HaCaT cells were preloaded with fluorescein cadaverine, treated with the indicated inhibitor and then challenged with calcium ionophore, washed and assayed for FC incorporation. […] HaCaT were incubated for 48 h with the indicated inhibitor and extracts were prepared and incubated with GTP-agarose beads to measure TG2 binding to GTP agarose. The beads were then washed, boiled in Laemmli buffer and electrophoresed for immunoblot detection of TG2. Cell equivalent quantities of total and bound samples were electrophoresed to facilitate comparison of GTP bound versus total. […] Experiments were performed as described in FIGS. 31 (F) and (G).

[1] = test system: SCC-13, HaCaT, A431, TU159, HNSCC3 cells; test: Spheroid formation, matrigel invasion and migration assays in five cell lines (Example 11); assay type: cell-based, human; settings: FIGS. 38-42
Protocol: SCC13 cells were grown for one week as monolayer in spheroid media; cells were harvested with 0.25% trypsin and plated with 2 mL of spheroid media at 15,000 cells per well in a 6-well dish. Cells were counted on day 0 and then treated with the indicated concentration of the indicated compound. Control was 0.1% DMSO. Cells were counted using a cell counter, 2 wells per treatment on each day. Values shown are mean±SEM, n=1.
(§1) HaCaT cells were grown for one week as a monolayer in spheroid media. Cells were harvested with 0.25% trypsin and plated with 2 mL of spheroid media at 15,000 cells per well in a 6-well dish. Cells were counted on day 0 and then treated with the indicated concentration of the indicated compound. Control was 0.1% DMSO. Cells were counted using a cell counter, 2 wells per treatment on each day. Values shown are mean±SEM, n=1.
as §1, with “A431” for “HaCaT”
TU159 cells were harvested with 0.25% trypsin and plated with 2 mL of spheroid media at 40,000 cells per well in a 6 well low-attachment plate. The cells were grown as spheroids for 8 days. On day 8 the spheroids were treated with the indicated concentration of the indicated compound. Control was 0.1% DMSO. The same 2 wells per treatment were counted on each day. Values shown are mean±SEM, n=1.
as §1, with “HNSCC3” for “HaCaT”, “The same” for “Cells were counted using a cell counter,”, “treatment were counted” for “treatment”, “n=1. […]” for “n=1.”

| SMILES | matrigel invasion (SCC-13 cells; 20 μM pretreatment 1 hour, 24 hours) | invasion (SCC-13 cells; 20 μM pretreatment 2 h, 30 h) | matrigel invasion (SCC-13 cells; 20 μM, 24 h) | TG2 GTP binding (endogenous TG2) | spheroid formation, matrigel invasion and migration [1] |
| --- | --- | --- | --- | --- | --- |
| C=CC(=O)NCCCC[C@H](NC(=O)OCc1ccccc1)C(=O)NCCOCCOCCNS(=O)(=O)c1cccc2c(N(C)C)cccc12 [NC9] | reduced matrigel invasion | reduced | inhibited | reduced TG2 GTP binding | inhibit spheroid formation, matrigel invasion and migration |
| C=CC(=O)NCCCC[C@H](NC(=O)OCc1ccccc1)C(=O)N1CCN(S(=O)(=O)c2cccc3c(N(C)C)cccc23)CC1 [VA4, (S)-benzyl(6-acrylamido-1-(4-((5-(dimethylamino)naphthalen-1-yl)sulfonyl)piperazin-1-yl)-1-oxohexan-2-yl)carbamate] |  |  | inhibited | reduced TG2 GTP binding | inhibit spheroid formation, matrigel invasion and migration |
| C=CC(=O)NCCCC[C@H](NC(=O)OCc1ccccc1)C(=O)N1CCN(C(=O)c2cc3ccc(O)cc3oc2=O)CC1 [VA5, (S)-Benzyl(6-acrylamido-1-(4-(7-hydroxy-2-oxo-2H-chromene-3-carbonyl)piperazin-1-yl)-1-oxohexan-2-yl)carbamate] |  |  | inhibited | reduced TG2 GTP binding | inhibit spheroid formation, matrigel invasion and migration |
